The results in this text go back to US8754054B2, “Antibacterial compounds, methods of making them, and uses thereof” (Albany Molecular Research, Inc., priority 2010, dated 2014).

Converted amounts (≈) assume the structure as drawn.

In the first experiment the test system is MRSA 43300. The experiment is described as follows: Antibacterial activity, NCCLS dilution method (Table 9). The experiment is classed as cell-based, S. aureus. The following applies: MRSA 43300; dilution method; labels marked a tested as a mixture of diastereomers. The source says: NCCLS standards for antimicrobial susceptibility testing using the dilution method were followed. See: Performance Standards for Antimicrobial Susceptibility Testing; Fourteenth Informational Supplement. NCCLS Document M100-S14 (ISBN 1-56238-516-X), 2004. NCCLS, 940 West Valley Road, Suite 1400, Wayne, Pa. 19087-1898 USA, 2004; Methods for Dilution Antimicrobial Susceptibility Tests for Bacteria that Grow Aerobically; Approved Standard—Sixth Edition. NCCLS document M7-A6 (IBSBN 1-56238-486-4), NCCLS, 940 West Valley Road, Suite 1400, Wayne, Pa. 19087-1898 USA, 2003, which are hereby incorporated by reference in their entirety.
“(6R,6aS,14aR)-Methyl 1,6,8,12,14a-pentahydroxy-11-((2S,3R,4R,5R,6S)-4-hydroxy-3,5-dimethoxy-6-methyltetrahydro-2H-pyran-2-ylamino)-12-((5-(2-hydroxypropyl)furan-3-yl)methyl)-6a-methoxy-3-methyl-7,9,14-trioxo-5,6,6a,7,9,12,14,14a-octahydrobenzo[a]tetracene-2-carboxylate [Example 61]”: the “MRSA 43300 MIC” value is 0.06 µg/mL.

Staying with this experiment, now noted: Staphylococcus aureus, MRSA, MRSA 43300; dilution method; labels marked a tested as a mixture of diastereomers; read-out: MRSA 43300 MIC.
With `COC(=O)c1c(C)cc2c(c1OCC(N)=O)[C@]1(O)C(=O)c3cc4c(c(O)c3C(=O)[C@]1(OC)[C@H](O)C2)C(=O)C=C(NC1O[C@@H](C)[C@H](OC)[C@@H](O)[C@H]1OC)C4=O` (stereo partly drawn) [Example 10, (6R,6aS,14aR)-Methyl 1-(2-amino-2-oxoethoxy)-6,8,14a-trihydroxy-11-((3R,4R,5R,6S)-4-hydroxy-3,5-dimethoxy-6-methyltetrahydro-2H-pyran-2-ylamino)-6a-methoxy-3-methyl-7,9,12,14-tetraoxo-5,6,6a,7,9,12,14,14a-octahydrobenzo[a]tetracene-2-carboxylate], the MIC was 32 µg/mL (≈ 42.4 µM).

`COC(=O)c1c(C)cc2c(c1O)[C@]1(O)C(=O)c3cc4c(c(O)c3C(=O)[C@]1(OC)[C@H](O)C2)C(=O)C=C(N[C@H]1O[C@@H](C)[C@H](OC)[C@@H](O)[C@H]1OC)C4(O)c1ccccc1` (single isomer, unassigned) [Example 56]: the MIC was 8 µg/mL (≈ 10.3 µM).

Regarding `COC(=O)c1c(C)cc2c(c1OC)[C@]1(O)C(=O)c3cc4c(c(O)c3C(=O)[C@]1(OC)[C@H](O)C2)C(=O)C=C(N[C@H]1O[C@@H](C)[C@H](OC)[C@@H](O)[C@H]1OC)C4=O` [Example 4, (6R,6aS,14aR)-Methyl 6,8,14a-trihydroxy-11-((2S,3R,4R,5R,6S)-4-hydroxy-3,5-dimethoxy-6-methyltetrahydro-2H-pyran-2-ylamino)-1,6a-dimethoxy-3-methyl-7,9,12,14-tetraoxo-5,6,6a,7,9,12,14,14a-octahydrobenzo[a]tetracene-2-carboxylate], the MIC was 0.06 to 0.12 µg/mL (≈ 0.0843 to 0.169 µM).

In the case of `CO[C@@H]1[C@@H](O)[C@@H](OC)C(NC2=CC(=O)c3c(cc4c(c3O)C(=O)[C@]3(OC)[C@H](O)Cc5cc(C)c(C(=O)NCCCc6ccccc6)c(O)c5[C@]3(O)C4=O)C2=O)O[C@H]1C` (mixture of isomers) [Example 25, (6R,6aS,14aR)-1,6,8,14a-Tetrahydroxy-11-((3R,4R,5R,6S)-4-hydroxy-3,5-dimethoxy-6-methyltetrahydro-2H-pyran-2-ylamino)-6a-methoxy-3-methyl-7,9,12,14-tetraoxo-N-(3-phenylpropyl)-5,6,6a,7,9,12,14,14a-octahydrobenzo[a]tetracene-2-carboxamide], the MIC fell in the range of 2 to 4 µg/mL (≈ 2.5 to 4.99 µM).

Take `CO[C@@H]1[C@@H](O)[C@@H](OC)C(NC2=CC(=O)c3c(cc4c(c3O)C(=O)[C@]3(OC)[C@H](O)Cc5cc(C)c(C(=O)NCc6ccccc6)c(O)c5[C@]3(O)C4=O)C2=O)O[C@H]1C` (mixture of isomers) [Example 30, (6R,6aS,14aR)—N-Benzyl-1,6,8,14a-tetrahydroxy-11-((3R,4R,5R,6S)-4-hydroxy-3,5-dimethoxy-6-methyltetrahydro-2H-pyran-2-ylamino)-6a-methoxy-3-methyl-7,9,12,14-tetraoxo-5,6,6a,7,9,12,14,14a-octahydrobenzo[a]tetracene-2-carboxamide]: the MIC lay within 0.12 to 0.5 µg/mL (≈ 0.155 to 0.647 µM).

With `CO[C@@H]1[C@@H](O)[C@@H](OC)C(NC2=CC(=O)c3c(cc4c(c3O)C(=O)[C@]3(OC)[C@H](O)Cc5cc(C)c(C(=O)NC(C)C)c(O)c5[C@]3(O)C4=O)C2=O)O[C@H]1C` (mixture of isomers) [Example 31, (6R,6aS,14aR)-1,6,8,14a-Tetrahydroxy-11-((3R,4R,5R,6S)-4-hydroxy-3,5-dimethoxy-6-methyltetrahydro-2H-pyran-2-ylamino)-N-isopropyl-6a-methoxy-3-methyl-7,9,12,14-tetraoxo-5,6,6a,7,9,12,14,14a-octahydrobenzo[a]tetracene-2-carboxamide], the MIC worked out at 2 µg/mL (≈ 2.76 µM).
